# Experimental data reported in patent publication US10167262B2, “Herbicidal substituted 3-arylpyrazoles” (FMC CORPORATION, priority 2014, dated 2019).
# What was measured:
# Assay type in all cases: in vivo
# [1] = test system: Italian ryegrass (Lolium multiflorum); experiment: Test E pre-/postemergence greenhouse test, plant response rating 0-100; settings: Postemergence, scale 0 to 100
# Summary of the method: (§1)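 Greenhouse pot assay, two application timings. Pre- to silt loam at planting; post- to 1–4-leaf plants. Visual 0–100 score at 14–21 d.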
# [2] = test system: wild poinsettia (Euphorbia heterophylla); experiment: as above; settings: Postemergence, scale 0 to 100
# Summary of the method: as §1
# [3] = test system: waterhemp_RES2, (ALS & HPPD resistant common waterhemp, Amaranthus rudis); experiment: Test E postemergence greenhouse test, plant response rating 0-100; settings: scale 0 to 100
# Procedure: At the same time, plants from these crop and weed species and also waterhemp_RES1, (ALS & Triazine resistant common waterhemp, Amaranthus rudis), and waterhemp_RES2, (ALS & HPPD resistant common waterhemp, Amaranthus rudis) were planted in pots containing Redi-Earth® planting medium (Scotts Company, 14111 Scottslawn Road, Marysville, Ohio 43041) comprising spaghnum peat moss, vermiculite, wetting agent and starter nutrients were treated with postemergence applications of test chemicals formulated in the same manner. Plants ranged in height from 2 to 18 cm for postemergence treatments (1- to 4-leaf stage).
# Treated plants and controls were maintained in a greenhouse for 14 to 21 days, after which time all species were compared to controls and visually evaluated. Plant response ratings, summarized in Table E, are based on a scale of 0 to 100 where 0 is no effect and 100 is complete control. A dash (-) response means no test result.
# [4] = test system: goosegrass (Eleusine indica); experiment: Test C postemergence greenhouse test, plant response rating 0-100; settings: for Plant response rating, Goosegrass: scale 0 to 100
# Summary of the method: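 Postemergence spray of formulated test chemicals on plants 2 to 18 cm tall (1- to 4-leaf stage) grown in peat/vermiculite medium. Greenhouse hold 13 to 15 days, then visual comparison with untreated controls on a 0-100 scale (0 no effect, 100 complete control); dash means no test result.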
# [5] = test system: barnyardgrass (Echinochloa crus-galli); experiment: Test C pre-/postemergence greenhouse test, plant response rating 0-100
# Summary of the method: (§2)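 Plants were treated either at seeding (soil of loam and sand) or as 2–18 cm seedlings in a sphagnum peat mix, using test chemicals in a surfactant-containing non-phytotoxic solvent. Visual assessment relative to controls followed 13–15 days later.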
# [6] = test system: waterhemp (common waterhemp, Amaranthus rudis); experiment: as above
# Summary of the method: as §2
# [7] = test system: oilseed rape (Brassica napus); experiment: as above
# Summary of the method: as §2
# [8] = Postemergence, 250 g ai/ha, scale 0 to 100
Compound,"Plant response rating, Ryegrass, Italian ([1]; 31 g ai/ha)","Plant response rating, Ryegrass, Italian ([1]; 62 g ai/ha)","Plant response rating, Ryegrass, Italian ([1]; 125 g ai/ha)","Plant response rating, Ryegrass, Italian ([1]; 250 g ai/ha)","Plant response rating, Ryegrass, Italian ([1]; 500 g ai/ha)","Plant response rating, Poinsettia, Wild ([2]; 31 g ai/ha)","Plant response rating, Poinsettia, Wild ([2]; 62 g ai/ha)","Plant response rating, Poinsettia, Wild ([2]; 125 g ai/ha)","Plant response rating, Poinsettia, Wild ([2]; 250 g ai/ha)","Plant response rating, Poinsettia, Wild ([2]; 500 g ai/ha)","Plant response rating, Waterhemp_RES2 ([3]; 31 g ai/ha)","Plant response rating, Waterhemp_RES2 ([3]; 62 g ai/ha)","Plant response rating, Waterhemp_RES2 ([3]; 125 g ai/ha)","Plant response rating, Waterhemp_RES2 ([3]; 250 g ai/ha)","Plant response rating, Waterhemp_RES2 ([3]; 500 g ai/ha)","Plant response rating (0 to 100), Goosegrass ([4]; 62 g ai/ha)","Plant response rating (0 to 100), Goosegrass ([4]; 125 g ai/ha)","Plant response rating, Goosegrass ([4]; 250 g ai/ha)","Plant response rating, Goosegrass ([4]; 500 g ai/ha)","Plant response rating, Barnyardgrass ([5]; Preemergence, 62 g ai/ha)",also measured
Cn1cc(C(=O)c2cccs2)c(-c2cc(Cl)cc(Cl)c2)n1 [Compound 17],0,0,0,0,0,0,0,0,20,30,60,75,80,85,95,0,0,5,5,–,–
CCn1cc(C(=O)c2cccs2)c(-c2cc(Cl)cc(Cl)c2)n1 [Compound 18],0,0,0,0,0,5,20,30,30,40,65,80,85,90,95,0,0,10,15,–,–
O=C(c1cncc(F)c1)c1c[nH]nc1-c1cc(Cl)cc(Cl)c1 [Compound 19],–,–,–,–,–,–,–,–,–,–,–,–,–,–,–,–,–,–,–,0,"Plant response rating (0 to 100), Barnyardgrass ([5]; Postemergence, 31 g ai/ha): 0; Plant response rating (0 to 100), Barnyardgrass ([5]; Postemergence, 62 g ai/ha): 0; Plant response rating, Barnyardgrass ([5]; Postemergence, 125 g ai/ha, scale 0 to 100): 0; Plant response rating, Barnyardgrass [5, 8]: 0; Plant response rating, Barnyardgrass ([5]; Preemergence, 31 g ai/ha): 0; Plant response rating, Barnyardgrass ([5]; Preemergence, 125 g ai/ha): 0; Plant response rating, Barnyardgrass ([5]; Preemergence, 250 g ai/ha): 0; Plant response rating (0 to 100), Waterhemp ([6]; Postemergence, 62 g ai/ha): 65; Plant response rating (0 to 100), Waterhemp ([6]; Postemergence, 125 g ai/ha): 80; Plant response rating, Waterhemp [6, 8]: 95; Plant response rating, Waterhemp ([6]; Preemergence, 62 g ai/ha): 100; Plant response rating, Waterhemp ([6]; Preemergence, 125 g ai/ha): 100; Plant response rating, Waterhemp ([6]; Preemergence, 250 g ai/ha): 100; Plant response rating (0 to 100), Oilseed Rape ([7]; Postemergence, 62 g ai/ha): 0; Plant response rating (0 to 100), Oilseed Rape ([7]; Postemergence, 125 g ai/ha): 0; Plant response rating, Oilseed Rape [7, 8]: 5; Plant response rating, Oilseed Rape ([7]; Preemergence, 31 g ai/ha): 0; Plant response rating, Oilseed Rape ([7]; Preemergence, 62 g ai/ha): 0; Plant response rating, Oilseed Rape ([7]; Preemergence, 125 g ai/ha): 80; Plant response rating, Oilseed Rape ([7]; Preemergence, 250 g ai/ha): 80"
"Clc1cc(Cl)cc(-c2n[nH]cc2C(=NN2CCCC2)c2ccccc2)c1 [Compound 30, N-[[3-(3,5-dichlorophenyl)-1H-pyrazol-4-yl]phenylmethylene]-1-pyrrolidinamine]",–,–,–,–,–,–,–,–,–,–,–,–,–,–,–,0,0,0,–,0,"pest or weed control at 31 g/ha ([1]; Lolium multiflorum, post-emergence, 31 g ai/ha): 0%; pest or weed control at 62 g/ha ([1]; Lolium multiflorum, post-emergence, 62 g ai/ha): 0%; pest or weed control at 125 g/ha ([1]; Lolium multiflorum, post-emergence, 125 g ai/ha): 0%; pest or weed control at 250 g/ha ([1]; Lolium multiflorum, post-emergence, 250 g ai/ha): 5%; pest or weed control at 31 g/ha ([2]; Euphorbia heterophylla, post-emergence, 31 g ai/ha, read-out: Plant response rating, Poinsettia, Wild): 0%; pest or weed control at 62 g/ha ([2]; Euphorbia heterophylla, post-emergence, 62 g ai/ha, read-out: Plant response rating, Poinsettia, Wild): 0%; pest or weed control at 125 g/ha ([2]; Euphorbia heterophylla, post-emergence, 125 g ai/ha, read-out: Plant response rating, Poinsettia, Wild): 0%; pest or weed control at 250 g/ha ([2]; Euphorbia heterophylla, post-emergence, 250 g ai/ha, read-out: Plant response rating, Poinsettia, Wild): 0%; Plant response rating, Barnyardgrass ([5]; Preemergence, 125 g ai/ha): 0; Plant response rating, Barnyardgrass ([5]; Preemergence, 250 g ai/ha): 0; Plant response rating, Barnyardgrass ([5]; Preemergence, 500 g ai/ha): 0; Plant response rating, Waterhemp ([6]; Preemergence, 62 g ai/ha): 100; Plant response rating, Waterhemp ([6]; Preemergence, 125 g ai/ha): 100; Plant response rating, Waterhemp ([6]; Preemergence, 250 g ai/ha): 100; Plant response rating, Waterhemp ([6]; Preemergence, 500 g ai/ha): 100; Plant response rating, Oilseed Rape ([7]; Preemergence, 62 g ai/ha): 50; Plant response rating, Oilseed Rape ([7]; Preemergence, 125 g ai/ha): 80; Plant response rating, Oilseed Rape ([7]; Preemergence, 250 g ai/ha): 85; Plant response rating, Oilseed Rape ([7]; Preemergence, 500 g ai/ha): 100; Plant response rating (0 to 100), Goosegrass ([4]; 31 g ai/ha): 0"
